The source made the active and inactive calls. No cut-off for these calls is given here.
How the values were obtained:
[1] = species on record: Rattus norvegicus; experiment: Stimulatory activity at sGC in Sprague-Dawley rat thoracic aorta assessed as inhibition of norepinephrine-induced contraction at 1 uM by JZ100 strain guages based isometric analysis relative to control; parameters: scale not given: the % may be the effect or the level left
[2] = Stimulatory activity at sGC in Sprague-Dawley rat thoracic aorta assessed as inhibition of norepinephrine-induced contraction by JZ100 strain guages based isometric analysis
[3] = test system: Heart; experiment: Cardioprotective activity in Langendorff perfused Sprague-Dawley rat heart assessed as reduction of coronary perfusion pressure; type: functional, tissue-based
[4] = test system: Heart; experiment: Cardioprotective activity in Langendorff perfused Sprague-Dawley rat heart assessed as reduction of coronary perfusion pressure at 0.01 to 3 uM relative to control; type: functional
[5] = test system: Heart; experiment: Cardioprotective activity in Langendorff perfused Sprague-Dawley rat heart assessed as increase in coronary artery relaxation; type: functional, tissue-based
[6] = test system: Heart; experiment: Potency index. ratio of EC50 of riociguat to EC50 of compound for cardioprotective activity in Langendorff perfused Sprague-Dawley rat heart assessed as increase in coronary artery relaxation; type: functional
[7] = Half life in male Beagle dog at 0.5 mg/kg, po by LC-MS/MS analysis; type: ADME, organism-based, Canis lupus familiaris; conditions: in vivo
[8] = Tmax in male Beagle dog at 0.5 mg/kg, po by LC-MS/MS analysis; type: ADME, organism-based, Canis lupus familiaris; conditions: in vivo
[9] = Cmax in male Beagle dog at 0.5 mg/kg, po by LC-MS/MS analysis; type: ADME, organism-based, Canis lupus familiaris; parameters: dose 0.5 mg/kg, route oral; conditions: in vivo
[10] = AUC (0 to infinity) in male Beagle dog at 0.5 mg/kg, po by LC-MS/MS analysis; type: ADME, organism-based, Canis lupus familiaris; parameters: dose 0.5 mg/kg, route oral, time infinity; conditions: in vivo
[11] = Apparent clearance in male Beagle dog at 0.5 mg/kg, po by LC-MS/MS analysis; type: ADME, organism-based, Canis lupus familiaris; conditions: in vivo, read-out: CL(app) (converted)
[12] = Apparent volume of distribution in male Beagle dog at 0.5 mg/kg, po by LC-MS/MS analysis; type: ADME, organism-based, Canis lupus familiaris; conditions: in vivo
[13] = Oral bioavailability (0 to infinity) in male Beagle dog at 0.5 mg/kg by LC-MS/MS analysis; type: ADME, organism-based, Canis lupus familiaris; conditions: in vivo
[14] = Half life in male Beagle dog at 1.5 mg/kg, po by LC-MS/MS analysis; type: ADME, organism-based, Canis lupus familiaris; conditions: in vivo
[15] = Tmax in male Beagle dog at 1.5 mg/kg, po by LC-MS/MS analysis; type: ADME, organism-based, Canis lupus familiaris; conditions: in vivo
[16] = Cmax in male Beagle dog at 1.5 mg/kg, po by LC-MS/MS analysis; type: ADME, organism-based, Canis lupus familiaris; parameters: dose 1.5 mg/kg, route oral; conditions: in vivo
[17] = AUC (0 to infinity) in male Beagle dog at 1.5 mg/kg, po by LC-MS/MS analysis; type: ADME, organism-based, Canis lupus familiaris; parameters: dose 1.5 mg/kg, route oral, time infinity; conditions: in vivo
[18] = Apparent clearance in male Beagle dog at 1.5 mg/kg, po by LC-MS/MS analysis; type: ADME, organism-based, Canis lupus familiaris; conditions: in vivo, read-out: CL(app) (converted)
[19] = Apparent volume of distribution in male Beagle dog at 1.5 mg/kg, po by LC-MS/MS analysis; type: ADME, organism-based, Canis lupus familiaris; conditions: in vivo
[20] = Half life in male Beagle dog at 4.5 mg/kg, po by LC-MS/MS analysis; type: ADME, organism-based, Canis lupus familiaris; conditions: in vivo
[21] = Tmax in male Beagle dog at 4.5 mg/kg, po by LC-MS/MS analysis; type: ADME, organism-based, Canis lupus familiaris; conditions: in vivo
[22] = Cmax in male Beagle dog at 4.5 mg/kg, po by LC-MS/MS analysis; type: ADME, organism-based, Canis lupus familiaris; parameters: dose 4.5 mg/kg, route oral; conditions: in vivo
[23] = AUC (0 to infinity) in male Beagle dog at 4.5 mg/kg, po by LC-MS/MS analysis; type: ADME, organism-based, Canis lupus familiaris; parameters: dose 4.5 mg/kg, route oral, time infinity; conditions: in vivo
[24] = Apparent clearance in male Beagle dog at 4.5 mg/kg, po by LC-MS/MS analysis; type: ADME, organism-based, Canis lupus familiaris; conditions: in vivo, read-out: CL(app) (converted)
[25] = Apparent volume of distribution in male Beagle dog at 4.5 mg/kg, po by LC-MS/MS analysis; type: ADME, organism-based, Canis lupus familiaris; conditions: in vivo
[26] = Half life in female Beagle dog at 0.5 mg/kg, po by LC-MS/MS analysis; type: ADME, organism-based, Canis lupus familiaris; conditions: in vivo
[27] = Tmax in female Beagle dog at 0.5 mg/kg, po by LC-MS/MS analysis; type: ADME, organism-based, Canis lupus familiaris; conditions: in vivo
[28] = Cmax in female Beagle dog at 0.5 mg/kg, po by LC-MS/MS analysis; type: ADME, organism-based, Canis lupus familiaris; parameters: dose 0.5 mg/kg, route oral; conditions: in vivo
[29] = AUC (0 to infinity) in female Beagle dog at 0.5 mg/kg, po by LC-MS/MS analysis; type: ADME, organism-based, Canis lupus familiaris; parameters: dose 0.5 mg/kg, route oral, time infinity; conditions: in vivo
[30] = Apparent clearance in female Beagle dog at 0.5 mg/kg, po by LC-MS/MS analysis; type: ADME, organism-based, Canis lupus familiaris; conditions: in vivo, read-out: CL(app) (converted)
[31] = Apparent volume of distribution in female Beagle dog at 0.5 mg/kg, po; type: ADME, organism-based, Canis lupus familiaris; conditions: in vivo
[32] = test system: Heart; experiment: Cardioprotective activity in Langendorff perfused Sprague-Dawley rat heart assessed as increase in coronary artery blood flow; type: functional, tissue-based

`CCN(C(=O)OC)c1c(N)nc(-c2nn(Cc3ccc(F)s3)c3ncccc23)nc1N` showed an Activity [1] of 51.9%.
With `COC(=O)N(C)c1c(N)nc(-c2nn(Cc3sccc3F)c3ncccc23)nc1N` the EC50 [2] was 0.11 µM, the Activity [1] was 87% and the Activity [3] was “Dose-dependent effect”. For the same compound, the EC50 [3] was 0.086 µM, the Emax [4] was 60% and the Activity [5] was “Active”. The “Ratio EC50” value [6] was 3, the half-life [7] was 2.04 h and the Tmax [8] was 0.6 h. For the same compound, the Cmax [9] was 83.8 ng/mL, the AUC(0-inf) [10] was 213 ng·h/mL and the CL/F [11] was 41 mL/min/kg. For the same compound, the Vz [12] was 7.9 L/kg, the bioavailability [13] was 80% and the half-life [14] was 3.24 h. It also gave a Tmax [15] of 0.75 h, a Cmax [16] of 106 ng/mL and an AUC(0-inf) [17] of 373 ng·h/mL. It also gave a CL/F [18] of 96 mL/min/kg, a Vz [19] of 43.47 L/kg and a half-life [20] of 3.77 h. For the same compound, the Tmax [21] was 1.55 h, the Cmax [22] was 175 ng/mL and the AUC(0-inf) [23] was 874 ng·h/mL. The CL/F [24] was 103 mL/min/kg, the Vz [25] was 41.14 L/kg and the half-life [26] was 1.75 h. For the same compound, the Tmax [27] was 1.25 h, the Cmax [28] was 72.4 ng/mL and the AUC(0-inf) [29] was 198 ng·h/mL. The CL/F [30] was 42.3 mL/min/kg, the Vz [31] was 6.38 L/kg and the Activity [32] was “Active”.
`CCOC(=O)Nc1c(N)nc(-c2nn(Cc3sccc3F)c3ncccc23)nc1N` showed an Activity [1] of 27.3%.
For `COC(=O)N(C)c1c(N)nc(-c2nn(Cc3ccc(F)s3)c3ncccc23)nc1N`, the Activity [1] was 39.2%.
With `CCN(C(=O)OC)c1c(N)nc(-c2nn(Cc3sccc3F)c3ncccc23)nc1N` the EC50 [2] was 0.21 µM, the Activity [1] was 85.4% and the Activity [3] was “Dose-dependent effect”. The EC50 [3] was 0.18 µM, the Emax [4] was 60% and the Activity [5] was “Active”. The Activity [32] was “Active”.
With `CC(C)OC(=O)N(C)c1c(N)nc(-c2nn(Cc3sccc3F)c3ncccc23)nc1N` the EC50 [2] was 0.18 µM, the Activity [1] was 75.1% and the Activity [3] was “Dose-dependent effect”. For the same compound, the EC50 [3] was 0.11 µM, the Emax [4] was 60% and the Activity [5] was “Active”. The Activity [32] was “Active”.
For `CCN(C(=O)OC(C)C)c1c(N)nc(-c2nn(Cc3ccc(F)s3)c3ncccc23)nc1N`, the Activity [1] was 41%.
Compound `COC(=O)Nc1c(N)nc(-c2nn(Cc3ccc(F)s3)c3ncccc23)nc1N` has an Activity [1] of 30%.
Compound `COC(=O)Nc1c(N)nc(-c2nn(Cc3sccc3F)c3ncccc23)nc1N` has an Activity [1] of 14.3%.
Work on `CCN(C(=O)OC(C)C)c1c(N)nc(-c2nn(Cc3cccnc3F)c3ncccc23)nc1N` yielded an Activity [1] of 9%.
In the case of `CCOC(=O)N(CC)c1c(N)nc(-c2nn(Cc3ccc(F)s3)c3ncccc23)nc1N`, the Activity [1] is reported as 48.4%.
In the case of `COC(=O)N(C)c1c(N)nc(-c2nn(Cc3cncc(C)c3)c3ncccc23)nc1N`, the Activity [1] is reported as 31%.
For `CC(C)OC(=O)N(C)c1c(N)nc(-c2nn(Cc3cccnc3F)c3ncccc23)nc1N`, the Activity [1] was 1.9%.
Compound `CCOC(=O)N(C)c1c(N)nc(-c2nn(Cc3sccc3F)c3ncccc23)nc1N` has an EC50 [2] of 0.38 µM and an Activity [1] of 86.6%.
`Cc1cncc(Cn2nc(-c3nc(N)c(N(C)C(=O)OC(C)C)c(N)n3)c3cccnc32)c1` showed an Activity [1] of 32.4%.
Work on `CCOC(=O)Nc1c(N)nc(-c2nn(Cc3ccc(F)s3)c3ncccc23)nc1N` yielded an Activity [1] of 57.4%.
With `COC(=O)N(C)c1c(N)nc(-c2nn(Cc3ccccc3F)c3ncccc23)nc1N` [RIOCIGUAT] the EC50 [2] was 0.3 µM, the Activity [1] was 88.9% and the EC50 [3] was 0.27 µM.
`CCN(C(=O)OC(C)C)c1c(N)nc(-c2nn(Cc3sccc3F)c3ncccc23)nc1N` showed an EC50 [2] of 0.87 µM and an Activity [1] of 76.2%.
`CC(C)OC(=O)Nc1c(N)nc(-c2nn(Cc3ccc(F)s3)c3ncccc23)nc1N` gave an Activity [1] of 17.1%.
For `COC(=O)N(C)c1c(N)nc(-c2nn(Cc3cccnc3F)c3ncccc23)nc1N`, the Activity [1] was 21.1%.
Work on `CC(C)OC(=O)N(C)c1c(N)nc(-c2nn(Cc3ccc(F)s3)c3ncccc23)nc1N` yielded an Activity [1] of 38.1%.
For `CC(C)OC(=O)Nc1c(N)nc(-c2nn(Cc3sccc3F)c3ncccc23)nc1N`, the Activity [1] was 42.3%.
For `CCOC(=O)N(C)c1c(N)nc(-c2nn(Cc3ccc(F)s3)c3ncccc23)nc1N`, the Activity [1] was 38.4%.
In the case of `CCOC(=O)N(C)c1c(N)nc(-c2nn(Cc3cncc(C)c3)c3ncccc23)nc1N`, the Activity [1] is reported as 47.4%.
`CC(C)OC(=O)Nc1c(N)nc(-c2nn(Cc3cccnc3F)c3ncccc23)nc1N` gave an Activity [1] of 12.5%.
With `COC(=O)N(C)c1c(N)nc(-c2nn(Cc3cccs3)c3ncccc23)nc1N` the Activity [1] was 45.1%.
For `CCOC(=O)N(CC)c1c(N)nc(-c2nn(Cc3sccc3F)c3ncccc23)nc1N`, the EC50 [2] was 0.24 µM and the Activity [1] was 85.6%.
`CCN(C(=O)OC(C)C)c1c(N)nc(-c2nn(Cc3cncc(C)c3)c3ncccc23)nc1N` showed an Activity [1] of 0%.
Compound `COC(=O)Nc1c(N)nc(-c2nn(Cc3cccnc3F)c3ncccc23)nc1N` has an Activity [1] of 11.8%.
With `CCOC(=O)N(CC)c1c(N)nc(-c2nn(Cc3cncc(C)c3)c3ncccc23)nc1N` the Activity [1] was 3%.
`CCN(C(=O)OC)c1c(N)nc(-c2nn(Cc3cncc(C)c3)c3ncccc23)nc1N` showed an Activity [1] of 2.8%.

Reference: ChEMBL document CHEMBL4346707, “Synthesis and biological evaluation of pyrazolo[3,4-b]pyridine-3-yl pyrimidine derivatives as sGC stimulators for the treatment of pulmonary hypertension” (Eur J Med Chem, 2019)
